How the values were obtained:
Type in all cases: in vivo
[1] = system: SHP; experiment: Liver SHP gene expression by quantitative PCR after FXR agonist (Example 2); conditions: KKAy mice, 10 mg/kg orally for 4 days, liver on 5th day, FIG. 6-2
Experimental: (§1) An FXR agonist, GW-4064 (J. Med. Chem., vol. 43(16), pp. 2971-2974, 2000), was orally administered in a dosage of 10 mg/kg for 4 days. On the 5th day, mice were dissected to isolate the livers.

[2] = system: cyp7α; experiment: Liver cyp7α gene expression by quantitative PCR after FXR agonist (Example 2); conditions: KKAy mice, 10 mg/kg orally for 4 days, liver on 5th day, FIG. 6-1
Experimental: as §1

[3] = system: PEPCK; experiment: Liver PEPCK gene expression by quantitative PCR after FXR agonist (Example 2); conditions: KKAy mice, 10 mg/kg orally for 4 days, liver on 5th day, FIG. 7
Experimental: as §1

CC(C)c1onc(-c2c(Cl)cccc2Cl)c1COc1ccc(/C=C/c2cccc(C(=O)O)c2)c(Cl)c1 [GW-4064]
expression level of the gene for SHP in the liver compared with control group [1]: increased | expression level of the gene for cyp7α in the liver compared with control group [2]: decreased | expression level of the gene for PEPCK in the liver compared with control group [3]: increased

Reference: US20100055066A1, “Agent for prophylactic and/or therapeutic treatment of diabetes” (priority 2004, published 2010)
